Experimental data as given in patent US7282484B2, “Anti-tumor agents” (Point Therapeutics, Inc., priority 1999, dated 2007).
Where “and” joins values, the source holds several entries; their conditions need not be identical. Identical values can stand only once.

How the values were obtained:
[1] = tested on: Fischer D+ and D− rat bone marrow stromal cells; test: IL-6 release from rat bone marrow stromal cells (ELISA); type: cell-based; conditions: 2 days incubation
Method: (§1) Cell Source. 8-12 week old female wild type CD26 positive (D^+) and CD26 negative (D^−) Fischer rat (Charles River Labs, Japan) bone marrow.
(§2) Bone marrow preparation. Bone marrow was flushed from each femur, tibia and fibula with Dulbecco's phosphate buffered saline (D-PBS) using a 21-gauge needle and a 10 ml syringe. After removal, the bone marrow was immediately aspirated through the needle to make a single cell suspension. The cells were washed twice with sterile PBS and resuspended in MyeloCult H5100 long-term culture (LTC) media, available from Stem Cell Technologies, and supplemented with freshly diluted 10^−6 M hydrocortisone, available from Sigma.
Establishment of adherent bone marrow stromal cell cultures. 1-2×10^7 cells were seeded into a T25 flask (Coming) containing 10 mls of LTC medium and incubated at 37° C. in 100% humidified 5% CO2 in air. After 1 week half the medium was exchanged for fresh medium and incubated for approximately 1 week until a confluent cell layer formed. PT-100 incubation. The adherent stromal cells were removed from the flask by trypsin-EDTA (Life Technologies, Inc.) digestion, washed once with sterile PBS and resuspended in long term culture medium at 1×10^5/ml. […]
Similar levels of IL-6 are secreted from bone marrow stromal cells of D^+ and D^− rats. […] IL-6 levels in the culture supernatant were determined by ELISA.

[2] = tested on: DPPIV-like activity of FAP-α+ CD26− primary human stromal cells; test: DPPIV-like activity assay on FAP-α+ CD26− primary human stromal cells; type: cell-based; conditions: human stromal cells lacking CD26 but expressing FAP-α, 2 days incubation
Method: DPPIV-like activity assay. Following the removal of supernatant from the stromal cultures, the adherent cells were washed with D-PBS and assayed for DPPIV-like activity. The fluorogenic substrate Ala-Pro-AFC was diluted in DPPIV buffer (50 mM Hepes, 140 mM NaCl) from the original stock of 10 mM (stored at −20° C. as a solution in dimethyl-formamide) to 1 mM, directly before the assay. 30 μl of the 1 mM stock was added per ml of buffer and the stromal cells were incubated for 10 minutes with 1 ml per well of the diluted substrate. The reaction was stopped by removing the substrate solution from each well and measured in the fluorescence spectrophotometer or stored −20° C. Activity was measured using an excitation wavelength of 400 nm and emission wavelength of 505 nm.
(§3) Cell source. Bone marrow was kindly donated by New England Medical Center, Boston, Mass. and Dr. Richard Benjamin from Brigham and Women's Hospital in Boston, Mass. Mononuclear cells were purified over Ficoll and used immediately or frozen in liquid nitrogen.
Establishment of human stromal feeder layer. 2 to 4×10^7 human bone marrow mononuclear cells were seeded into a T75 flask (Corning) containing 20 mls of LTC medium and incubated. at 37° C. in 100% humidified 5% CO2 in air. After 1 week half the medium was exchanged for fresh medium and incubated for approximately 1 week when a confluent cell layer formed. […]

B16-F0 tumor = test: Established subcutaneous B16 melanoma in C57BL/6 mice; type: in vivo, mouse
Method: The highly metastic B16-F0 tumor was implanted subcutaneously (s.c.) in C57BL/6 mice. PT-100 administration was started on day 8 when palpable tumors were apparent. Tumor volumes were measured on days 8, 12, and 15. […] In the experiment of FIG. 4 each experimental group contained 10 animals.

WEHI-164 fibrosarcoma = test: Subcutaneous WEHI-164 fibrosarcoma in mice; type: in vivo, mouse
Method: Thus in the experiment of FIG. 5, the large reductions in tumor volume recorded were in part due to the absence of a palpable tumor in some of the mice:in each of the PT-100 treated groups (10 replicate animals per group). For example, in the mice treated with the 5 μg dose of PT-100 administered b.i.d., 6 of the animals were completely free of a detectable s.c. tumor. PT-100 treatment of the mice in the experimental groups was stopped on day 20, the day when the data of FIG. 5 were recorded.

[3] = tested on: FAP-α+ CD26− primary human stromal cells; test: G-CSF release from FAP-α+ CD26− primary human stromal cells (ELISA); type: cell-based; conditions: human bone marrow cells lacking CD26 but expressing FAP-α, 2 days incubation
Method: as §3
Establishment of human stromal feeder layer. 2 to 4×10^7 human bone marrow mononuclear cells were seeded into a T75 flask (Corning) containing 20 mls of LTC medium and incubated. at 37° C. in 100% humidified 5% CO2 in air. After 1 week half the medium was exchanged for fresh medium and incubated for approximately 1 week when a confluent cell layer formed.
ELISA of human cells. Cultured supernatants were assayed for a high sensitivity ELISA (R+D Systems).
PT-100 incubation, supernatant collection and DPPIV-like activity assay for human and rat cells were carried out in an identical manner.
The DPPIV-like activity associated with the intact cells was inhibited by-PT-100. Stromal cells were established from the bone marrow of a human volunteer as described in the materials and methods. The stromal cells were incubated for 2 days in the presence or absence of the indicated concentrations of PT-100 and cultured supernatants were assayed for IL-6 or DPPIV-like activity as described in Materials and Methods.

[4] = tested on: DPPIV-like activity of Fischer D+ and D− rat BM stromal cells; test: DPPIV-like activity assay on rat bone marrow stromal cells; type: cell-based
Method: as §1, §2
Establishment of adherent bone marrow stromal cell cultures. […]
DPPIV-like activity assay. […] The reaction was stopped by removing the substrate solution from each well and measured in the fluorescence spectrophotometer or stored −20° C. Activity was measured using an excitation wavelength of 400 nm and emission wavelength of 505 nm.
Bone marrow stromal cells were established from the long bones of Fischer D^+ and D^− rats and cultured for 2 days in the presence or absence of PT-100. […] DPPIV-like activity is presented as velocity and the percent of protease activity inhibition with PT-100 is calculated relative to a ‘no treatment’ control.

[5] = administration started on day 2 after implantation

CC(C)[C@H](N)C(=O)N1CCC[C@H]1B(O)O [PT-100, valine-proline-boronic acid]
IL-6 levels in culture supernatant [1]: enhanced
Inhibition of DPPIV-like activity associated with the intact cells [2]: inhibited
Tumor growth (B16-F0 tumor; 160 μg administered for two days, day 8 and day 9): effective in suppressing tumor growth
Tumor growth compared with saline treated control mice (B16-F0 tumor; 10 and 40 μg p.o. b.i.d. from day 8 to 14, tumor volumes days 8, 12, 15): markedly inhibited
Growth of B16 melanoma (B16-F0 tumor; administered orally, mice): significantly inhibits
Animals completely free of a detectable s.c. tumor (WEHI-164 fibrosarcoma; 5 μg b.i.d., started day 2, recorded day 20, 10 animals per group): 6 animals
Growth of WEHI-164 fibrosarcoma (WEHI-164 fibrosarcoma; administered orally, mice): significantly inhibits
Tumor growth (WEHI-164 fibrosarcoma; [5]): tumor growth inhibited
Tumor necrosis and regression (WEHI-164 fibrosarcoma; [5]): a proportion of the tumors also became necrotic and apparently regressed completely
Growth of an established s.c. tumor (WEHI-164 fibrosarcoma; established s.c. WEHI-164 tumor): could suppress the growth
Tumor recurrence in mice recorded as tumor-free on day 20 (WEHI-164 fibrosarcoma; treatment stopped on day 20, monitored up to day 30 after implantation): none of the mice recorded as tumor-free on day 20 has developed a detectable s.c. tumor
G-CSF release [3]: potently stimulated
% Inhibition by 10^−6 M PT-100 of DPPIV-like activity ([4]; Fischer D− (CD26 negative) rat BM stromal cells, 2 days culture, 10^−6 M, relative to no treatment control): 86.4% and 73.8% and 62.1%
Inhibition of DPPIV-like activity (in words) ([4]; rat bone marrow stromal cells which lack CD26): potently inhibited
